One test has as its system EGFR-GRB2 interactions. Also noted: species or system nude mice. As to conditions: mouse, in vivo. Here is the method: 5. […] Record start time • b. Incubation time should be 16-18 h
For a further test, the system named is EGFR-GRB2. Type of test: in vivo, mice. The settings on record: H1650 (EGFR mutant) or H322 (EGFR wildtype) xenografts, with or without erlotinib, 18 days. The protocol: (§1) Tumor xenografts were established in mice with either H1650 (EGFR mutant) or H322 (EGFR wildtype), treated with or without erlotinib and allowed to grow for 18 days. Formalin-fixed, paraffin-embedded tumor tissue was analyzed by PLA for the interaction of EGFR-GRB2 (left) and EGFR-SHC1 (right). Nuclei are shown in blue, PLA signal is red and cytokeratin is green. For clarity, identical images are shown with and without cytokeratin staining for each tumor.
(§2) Tumor tissues from subcutaneous mouse models of lung cancer will be used. […] Mice have been selected for these experiments since they are most suitable for xenograft and […] studies of lung cancer, are readily available and not endangered, and can be safely maintained in the laboratory animal vivarium. CD-1 nu/nu mice mice will be purchased from approved vendors and housed in institutional animal facilities according to protocols set out by the American Association for Accreditation of Laboratory Animal Care. The inventor currently has active IACUC protocol for establishing subcutaneous tumor xenografts in mice. Both male and female mice of approximately six weeks of age will be used. Mice will be anesthetized in an induction chamber containing 3% isoflurane and 97% oxygen.

Another test deals with EGFR-SHC1. Type of test: in vivo, mice. The settings on record: H1650 (EGFR mutant) or H322 (EGFR wildtype) xenografts, with or without erlotinib, 18 days. Here is the method: as §1, §2
The subject of the next test is phosphor-EGFRY1068. The test can be described thus: PLA for phosphorylated EGFR in cell lines (single antibody to phospho-EGFR Y1068). Type of test: cell-based, human. The settings on record: PC9 cells, 3 hours of treatment. The protocol: 9. […] Record start time • b. Incubation time should be 16-18 h
11. […] Ensure complete coverage of tissue area.

For test [1], the system named is EGFR binding of Grb2, Mig6, Sts1. Nature of the test: Affinity purification mass spectrometry (AP-MS) of EGFR interactions. Type of test: cell-based, human. The settings on record: cells treated with erlotinib; data not shown. From the text: The present inventors have initiated a system wide and global analysis of the PPI driven by hyperactivated epidermal growth factor receptor (EGFR) resulting from somatic mutation in non-small cell lung cancer (NSCLC) (17-19). The inventors' approach has been to combine (i) affinity purification—mass spectrometry (AP-MS) and (ii) phosphotyrosine proteomics. The inventors use cell models that harbor mutant EGFR proteins and are highly sensitive to EGFR TKI. As the network of EGFR is highly dependent on cell context, this approach offers the best chance of recovering pertinent proteins and mechanisms, a potential flaw in using cells other than lung cancer cells driven by mutant EGFR. Tagged versions of EGFR are initially used to identify interactions and second round of AP-MS is performed to more fully construct the network (20, 21). The inventors simultaneously performed tyrosine phosphoproteomics—tyrosine phosphorylated (pTyr) peptides are enriched using an anti-phosphotyrosine antibody and then identified and quantified on an Orbitrap mass spectrometer using published methods (9). […]
EGFR inhibitors are predicted to disrupt signaling complexes on the EGFR protein. […] Changes in EGFR PPI will be determined using PLA on these tumor samples. Measurements of EGFR PPI using PLA will be analyzed from the pre-treatment sample and again on the post-treatment sample.

The next test concerns lung cancer cell lines. The test can be described thus: Sensitivity of lung cancer cell lines to EGFR TKI. In kind it is cell-based, human.
The subject of the next test is EGFR. In kind it is cell-based, human.

Turning to `C#Cc1cccc(Nc2ncnc3cc(OCCOC)c(OCCOC)cc23)c1` [erlotinib], the “EGFR-GRB2 PLA signal in tumor” value with EGFR-GRB2 interactions is listed as “considerably reduced”. Moreover, the “proteins in complex with EGFR (PLA)” value in the test with EGFR-GRB2 interactions is “reductions in proteins in complex with EGFR”. In addition, in the test with EGFR-GRB2, the “EGFR-GRB2 PLA signal in tumor tissue” value was “markedly reduced”. In the test with EGFR-SHC1, the “EGFR-SHC1 PLA signal in tumor tissue” value was “markedly reduced”. Besides, the “phosphorylation of EGFR by PLA (pEGFR Y1068), confirmed by immunoblot” value in the test with phosphor-EGFRY1068 is recorded as “abolishes”. Also, in test [1], the “EGFR binding partners by mass spectrometry” value was “no longer bound Grb2, Mig6 or Sts1”. The “sensitivity to EGFR TKI (erlotinib)” value in the test on lung cancer cell lines (A549, H23 and H460 cells) is listed as “resistant”; in the test on lung cancer cell lines (H1648, H322, H358 and H292 cells, wildtype EGFR), “some degree of sensitivity”. The erlotinib sensitivity entry in the test with lung cancer cell lines (H322 and H1648 cells) was “some degree of erlotinib sensitivity”. Besides, the EGFR tyrosine phosphorylation entry in the test with EGFR is listed as “inhibits”.

(Values after patent US10139410B2, “Protein-protein interaction as biomarkers” (H. LEE MOFFITT CANCER CENTER AND RESEARCH INSTITUTE, INC., priority 2011, dated 2018).)
